Numbered stars: 1 amine (or outer) side, 2 acyl side, 3 side chain; on linkers, the order of the positions; unused ones are H or OH. Square brackets hold non-standard residues; d marks the D form. Side chains are listed from the residue outwards. Peptide text beside a SMILES is read from it. * marks the point of attachment. C20 diacid = O=C(O)CCCCCCCCCCCCCCCCCCC(=O)*; γGlu = O=C(O)[C@H](CCC(=O)[*:2])N[*:1]; αMeL = CC(C)C[C@](C)(N)C(=O)O; AEEA = NCCOCCOCC(=O)O; Aib = CC(C)(N)C(=O)O
Tests used:
[1] = biological target: T1, human Gcg receptor (Homo sapiens, UniProt P47871); assay: [125I]-Glucagon binding (SPA), human Gcg receptor; conditions: read-out: hGLcgR Ki, nM (SEM, n)
T1 construct: expressed in transfected cells; crude membranes
T1 sequence (P47871 26-477): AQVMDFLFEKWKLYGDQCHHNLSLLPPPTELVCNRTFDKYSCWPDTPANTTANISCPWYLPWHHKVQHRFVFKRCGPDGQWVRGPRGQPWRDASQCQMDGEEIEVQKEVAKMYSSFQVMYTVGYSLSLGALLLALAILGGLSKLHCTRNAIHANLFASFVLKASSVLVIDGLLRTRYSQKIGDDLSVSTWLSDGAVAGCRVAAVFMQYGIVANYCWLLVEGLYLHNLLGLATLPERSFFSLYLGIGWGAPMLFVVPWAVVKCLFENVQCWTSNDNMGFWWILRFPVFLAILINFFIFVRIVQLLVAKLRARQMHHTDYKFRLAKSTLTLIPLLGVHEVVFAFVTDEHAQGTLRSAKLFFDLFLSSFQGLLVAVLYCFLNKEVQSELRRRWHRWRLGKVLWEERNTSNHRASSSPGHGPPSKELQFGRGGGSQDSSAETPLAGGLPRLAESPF
Procedure, shortened: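 Cell pellets were lysed in hypotonic Tris buffer, pH 7.5, homogenized, and spun at low then high speed to give crude membranes. Ki was derived from the fitted IC50.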

[2] = biological target: T2, human GIP receptor (Homo sapiens, UniProt P48546); assay: [125I]-GIP binding (SPA), human GIP receptor; conditions: read-out: hGIPR Ki, nM (SEM, n)
T2 construct: expressed in transfected cells; crude membranes
T2 sequence (P48546 22-466): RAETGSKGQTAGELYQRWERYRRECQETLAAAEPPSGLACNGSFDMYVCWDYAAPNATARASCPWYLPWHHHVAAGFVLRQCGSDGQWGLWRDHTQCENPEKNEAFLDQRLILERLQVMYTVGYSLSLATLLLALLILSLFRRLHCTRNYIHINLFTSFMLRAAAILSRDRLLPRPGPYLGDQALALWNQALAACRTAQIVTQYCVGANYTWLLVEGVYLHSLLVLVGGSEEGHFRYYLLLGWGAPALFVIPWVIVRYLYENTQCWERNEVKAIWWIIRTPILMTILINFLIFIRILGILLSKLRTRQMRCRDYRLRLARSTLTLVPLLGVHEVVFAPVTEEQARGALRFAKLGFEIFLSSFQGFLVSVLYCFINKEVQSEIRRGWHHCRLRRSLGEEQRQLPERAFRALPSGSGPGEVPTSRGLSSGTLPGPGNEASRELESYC

[3] = biological target: human GLP-1 receptor (GLP-1R) (Homo sapiens, UniProt P43220); assay: cAMP pharmacological functional assay in presence of casein, hGLP-1R; format: cell-based; conditions: HEK293 cells expressing hGLP-1R, 0.1% Casein, geometric mean; read-out: hGLP1R cAMP Rel EC50 nM (SEM, n)
Chain of human GLP-1 receptor (GLP-1R) (P43220 24-463): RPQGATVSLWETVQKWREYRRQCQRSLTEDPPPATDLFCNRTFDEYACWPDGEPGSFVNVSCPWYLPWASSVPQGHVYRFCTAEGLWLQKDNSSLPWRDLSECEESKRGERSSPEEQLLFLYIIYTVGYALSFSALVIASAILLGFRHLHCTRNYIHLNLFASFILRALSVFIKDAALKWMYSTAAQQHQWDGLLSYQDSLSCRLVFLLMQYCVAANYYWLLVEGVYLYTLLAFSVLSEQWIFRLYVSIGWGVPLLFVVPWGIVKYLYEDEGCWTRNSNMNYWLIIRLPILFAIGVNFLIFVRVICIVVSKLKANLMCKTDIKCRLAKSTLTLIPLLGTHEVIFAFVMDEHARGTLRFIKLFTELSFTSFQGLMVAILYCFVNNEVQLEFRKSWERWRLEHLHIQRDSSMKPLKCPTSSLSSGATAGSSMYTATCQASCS

[4] = biological target: T3, gastric inhibitory peptide receptor (GIPR) (Homo sapiens, UniProt P48546); assay: cAMP pharmacological functional assay in presence of casein, hGIPR; format: cell-based; conditions: HEK293 cells expressing hGIPR, 0.1% Casein, geometric mean; read-out: hGIPR cAMP Rel EC50 nM (SEM, n)
T3 sequence (P48546 22-466): T2 sequence (P48546 22-466)

[5] = biological target: human GLP-1R (Homo sapiens, UniProt P43220); assay: [125I]-GLP-1 binding (SPA), human GLP-1 receptor; set-up: expressed in transfected cells; crude membranes; conditions: read-out: hGLP1R Ki, (nM) (SEM, n)
Chain of human GLP-1R (P43220 24-463): as above
Procedure, shortened: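 Crude-membrane binding assay; one membrane prep included 1 mM MgCl2 and 25 units/ml DNAse I during lysis. Assay buffer at pH 7.4 contains 0.1% (w/v) bacitracin and 0.003% (w/v) TWEEN-20. Ki is reported as geometric mean.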

Ki [1] [nM]	Ki [2] [nM]	EC50 [3] [nM]	EC50 [4] [nM]	Ki [5] [nM]	Structure (SMILES)
168	0.0545	0.159	0.0601	2.03	CC[C@H](C)[C@H](NC(=O)[C@H](CC(C)C)NC(=O)[C@H](Cc1ccc(O)cc1)NC(=O)[C@H](CCC(=O)O)NC(=O)[C@@H](NC(=O)[C@H](Cc1ccccc1)NC(=O)[C@H](C)NC(=O)C(C)(C)NC(=O)[C@H](CCC(N)=O)NC(=O)[C@H](C)NC(=O)[C@H](CCCCNC(=O)COCCOCCNC(=O)COCCOCCNC(=O)CC[C@H](NC(=O)CCCCCCCCCCCCCCCCCCC(=O)O)C(=O)O)NC(=O)[C@H](CCCCN)NC(=O)[C@H](CC(=O)O)NC(=O)[C@H](CC(C)C)NC(=O)[C@](C)(CC(C)C)NC(=O)[C@@H](NC(=O)[C@H](CO)NC(=O)[C@H](Cc1ccc(O)cc1)NC(=O)[C@H](CC(=O)O)NC(=O)[C@H](CO)NC(=O)[C@@H](NC(=O)[C@H](Cc1ccccc1)NC(=O)[C@@H](NC(=O)CNC(=O)[C@H](CCC(=O)O)NC(=O)C(C)(C)NC(=O)[C@@H](N)Cc1ccc(O)cc1)[C@@H](C)O)[C@@H](C)O)[C@@H](C)CC)[C@@H](C)CC)C(=O)N[C@@H](CCC(=O)O)C(=O)NCC(=O)NCC(N)=O [Example 62] (H-Y[Aib]EGTFTSDYSI[αMeL]LDKK([AEEA-AEEA-γGlu-C20 diacid])AQ[Aib]AFIEYLIEGG-NH2)
273	0.141	0.19	0.0925	7.79	CC[C@H](C)[C@H](NC(=O)[C@H](CC(C)C)NC(=O)[C@H](Cc1ccc(O)cc1)NC(=O)[C@H](CCC(=O)O)NC(=O)[C@@H](NC(=O)[C@H](Cc1ccccc1)NC(=O)[C@H](C)NC(=O)C(C)(C)NC(=O)[C@H](CCC(N)=O)NC(=O)[C@H](C)NC(=O)[C@H](CCCCNC(=O)COCCOCCNC(=O)COCCOCCNC(=O)CC[C@H](NC(=O)CCCCCCCCCCCCCCCCCCC(=O)O)C(=O)O)NC(=O)[C@H](CCC(=O)O)NC(=O)[C@H](CC(=O)O)NC(=O)[C@H](CC(C)C)NC(=O)[C@](C)(CC(C)C)NC(=O)[C@@H](NC(=O)[C@H](CO)NC(=O)[C@H](Cc1ccc(O)cc1)NC(=O)[C@H](CC(=O)O)NC(=O)[C@H](CO)NC(=O)[C@@H](NC(=O)[C@H](Cc1ccccc1)NC(=O)[C@@H](NC(=O)CNC(=O)[C@H](CCC(=O)O)NC(=O)C(C)(C)NC(=O)[C@@H](N)Cc1ccc(O)cc1)[C@@H](C)O)[C@@H](C)O)[C@@H](C)CC)[C@@H](C)CC)C(=O)N[C@@H](CCC(=O)O)C(=O)NCC(=O)NCC(N)=O [Example 63] (H-Y[Aib]EGTFTSDYSI[αMeL]LDEK([AEEA-AEEA-γGlu-C20 diacid])AQ[Aib]AFIEYLIEGG-NH2)
260	0.0866	0.172	0.0916	4.86	CC[C@H](C)[C@H](NC(=O)[C@H](CC(C)C)NC(=O)[C@H](Cc1ccc(O)cc1)NC(=O)[C@H](CCC(=O)O)NC(=O)[C@@H](NC(=O)[C@H](Cc1ccccc1)NC(=O)[C@H](C)NC(=O)C(C)(C)NC(=O)[C@H](CCC(N)=O)NC(=O)[C@H](C)NC(=O)[C@H](CCCCNC(=O)COCCOCCNC(=O)COCCOCCNC(=O)CC[C@H](NC(=O)CCCCCCCCCCCCCCCCCCC(=O)O)C(=O)O)NC(=O)[C@H](CO)NC(=O)[C@H](CC(=O)O)NC(=O)[C@H](CC(C)C)NC(=O)[C@](C)(CC(C)C)NC(=O)[C@@H](NC(=O)[C@H](CO)NC(=O)[C@H](Cc1ccc(O)cc1)NC(=O)[C@H](CC(=O)O)NC(=O)[C@H](CO)NC(=O)[C@@H](NC(=O)[C@H](Cc1ccccc1)NC(=O)[C@@H](NC(=O)CNC(=O)[C@H](CCC(=O)O)NC(=O)C(C)(C)NC(=O)[C@@H](N)Cc1ccc(O)cc1)[C@@H](C)O)[C@@H](C)O)[C@@H](C)CC)[C@@H](C)CC)C(=O)N[C@@H](CCC(=O)O)C(=O)NCC(=O)NCC(N)=O [Example 64] (H-Y[Aib]EGTFTSDYSI[αMeL]LDSK([AEEA-AEEA-γGlu-C20 diacid])AQ[Aib]AFIEYLIEGG-NH2)

Structure (SMILES)	Ki [1] [nM]	Ki [2] [nM]	EC50 [3] [nM]	EC50 [4] [nM]	Ki [5] [nM]
CC[C@H](C)[C@H](NC(=O)[C@H](CC(C)C)NC(=O)[C@H](Cc1ccc(O)cc1)NC(=O)[C@H](CCC(=O)O)NC(=O)[C@@H](NC(=O)[C@H](Cc1ccccc1)NC(=O)[C@H](C)NC(=O)C(C)(C)NC(=O)[C@H](CCC(N)=O)NC(=O)[C@H](C)NC(=O)[C@H](CCCCNC(=O)COCCOCCNC(=O)COCCOCCNC(=O)CC[C@H](NC(=O)CCCCCCCCCCCCCCCCCCC(=O)O)C(=O)O)NC(=O)C(C)(C)NC(=O)[C@H](CC(=O)O)NC(=O)[C@H](CC(C)C)NC(=O)[C@](C)(CC(C)C)NC(=O)[C@@H](NC(=O)[C@H](CO)NC(=O)[C@H](Cc1ccc(O)cc1)NC(=O)[C@H](CC(=O)O)NC(=O)[C@H](CO)NC(=O)[C@@H](NC(=O)[C@H](Cc1ccccc1)NC(=O)[C@@H](NC(=O)CNC(=O)[C@H](CCC(=O)O)NC(=O)C(C)(C)NC(=O)[C@@H](N)Cc1ccc(O)cc1)[C@@H](C)O)[C@@H](C)O)[C@@H](C)CC)[C@@H](C)CC)C(=O)N[C@@H](CCC(=O)O)C(=O)NCC(=O)NCC(=O)N1CCC[C@H]1C(=O)N[C@@H](CO)C(=O)N[C@@H](CO)C(=O)NCC(=O)N[C@@H](C)C(=O)N1CCC[C@H]1C(=O)N1CCC[C@H]1C(=O)N1CCC[C@H]1C(=O)N[C@@H](CO)C(N)=O [Example 60] (H-Y[Aib]EGTFTSDYSI[αMeL]LD[Aib]K([AEEA-AEEA-γGlu-C20 diacid])AQ[Aib]AFIEYLIEGGPSSGAPPPS-NH2)	237	0.0655	0.287	0.135	9.55
CC[C@H](C)[C@H](NC(=O)[C@H](Cc1ccccc1)NC(=O)[C@H](C)NC(=O)C(C)(C)NC(=O)[C@H](CCC(N)=O)NC(=O)[C@H](C)NC(=O)[C@H](CCCCNC(=O)COCCOCCNC(=O)COCCOCCNC(=O)CC[C@H](NC(=O)CCCCCCCCCCCCCCCCCCC(=O)O)C(=O)O)NC(=O)[C@H](CO)NC(=O)[C@H](CC(=O)O)NC(=O)[C@H](CC(C)C)NC(=O)[C@](C)(CC(C)C)NC(=O)[C@@H](NC(=O)[C@H](CO)NC(=O)[C@H](Cc1ccc(O)cc1)NC(=O)[C@H](CC(=O)O)NC(=O)[C@H](CO)NC(=O)[C@@H](NC(=O)[C@H](Cc1ccccc1)NC(=O)[C@@H](NC(=O)CNC(=O)[C@H](CCC(=O)O)NC(=O)C(C)(C)NC(=O)[C@@H](N)Cc1ccc(O)cc1)[C@@H](C)O)[C@@H](C)O)[C@@H](C)CC)C(=O)N[C@@H](CCC(=O)O)C(=O)N[C@@H](Cc1ccc(O)cc1)C(=O)N[C@@H](CC(C)C)C(=O)N[C@@H](CC(C)C)C(=O)N[C@@H](CCC(=O)O)C(=O)NCC(=O)NCC(=O)N1CCC[C@H]1C(=O)N[C@@H](CO)C(=O)N[C@@H](CO)C(=O)NCC(=O)N[C@@H](C)C(=O)N1CCC[C@H]1C(=O)N1CCC[C@H]1C(=O)N1CCC[C@H]1C(=O)N[C@@H](CO)C(N)=O [Example 61] (H-Y[Aib]EGTFTSDYSI[αMeL]LDSK([AEEA-AEEA-γGlu-C20 diacid])AQ[Aib]AFIEYLLEGGPSSGAPPPS-NH2)	110	0.102	0.371	0.0739	11.1

Source: patent publication US12252524B2, “GIP/GLP1 co-agonist compounds” (Eli Lilly and Company, priority 2018, dated 2025)
